Laboratory results reported in US20230146455A1, “TREATMENT OF INFLAMMATORY DISEASES WITH PEPTIDES AND PHARMACEUTICAL COMPOSITIONS” (Yuyu Pharma, Inc., priority 2020, published 2023).
Values joined by “and” are separate entries in the source; they are usually repeats but may differ in a detail not shown here. Identical values can stand only once. Where a SMILES comes first, the peptide text is derived from it. [ ]: non-standard residue; d: D form. Hyp = O=C(O)[C@@H]1C[C@@H](O)CN1

Test system: TIMP-1
Experiment: Example 9 Luminex, LPS hPBMCs: TIMP-1
Assay type: cell-based, human
Details: PBMC + LPS(5 ug/ml)
Experimental: Treatment Human PBMCs were pretreated with YY-101, YDE-011 and YDE-043 or reference compound; Xiidra® at various concentration (ranging from 1 nM to 100 uM) for 2 h before stimulation. An equal volume of 0.5% DMSO was used as a vehicle control. Then, the cells were treated with LPS at 5 ug/ml. The supernatants from treated cells were harvested at 24 h and placed in a 96 well for Luminex cytokine & chemokine profiling using a Luminex 200 multiplex assay (Luminex; R&D system, USA).
The main study arm with triplicate wells per group in a 24-well plate: • 1. Blank • 2. PBMC: 0.5% DMSO • 3. PBMC+LPS (5 ug/ml) • 4. PBMC+YY-101 100 uM • 5. PBMC+YY-101 10 uM • 6. PBMC+YY-101 1 uM • 7. PBMC+YY-101 0.1 uM • 8. PBMC+YY-101 0.01 uM • 9. PBMC+LPS (5 ug/ml)+Xiidra®100 uM • 10. PBMC+LPS (5 ug/ml)+Xiidra® 10 uM • 11. PBMC+LPS (5 ug/ml)+Xiidra® 1 uM • 12. PBMC+LPS (5 ug/ml)+Xiidra®0.1 uM • 13. PBMC+LPS (5 ug/ml)+Xiidra®0.01 uM • 14. PBMC+LPS (5 ug/ml)+Xiidra®0.001 uM • 15. PBMC+LPS (5 ug/ml)+YY-101 100 uM • 16. PBMC+LPS (5 ug/ml)+YY-101 10 uM • 17. PBMC+LPS (5 ug/ml)+YY-101 1 uM • 18. PBMC+LPS (5 ug/ml)+YY-101 0.1 uM • 19. PBMC+LPS (5 ug/ml)+YY-101 0.01 uM • 20. PBMC+LPS (5 ug/ml)+YY-101 0.001 uM • 21. PBMC+LPS (5 ug/ml)+YDE-011 100 uM • 22. PBMC+LPS (5 ug/ml)+YDE-011 10 uM • 23. PBMC+LPS (5 ug/ml)+YDE-011 1 uM • 24. PBMC+LPS (5 ug/ml)+YDE-011 0.1 uM • 25. PBMC+LPS (5 ug/ml)+YDE-011 0.01 uM • 26. PBMC+LPS (5 ug/ml)+YDE-011 0.001 uM • 27. PBMC+LPS (5 ug/ml)+YDE-043 100 uM • 28. PBMC+LPS (5 ug/ml)+YDE-043 10 uM • 29. PBMC+LPS (5 ug/ml)+YDE-043 1 uM • 30. PBMC+LPS (5 ug/ml)+YDE-043 0.1 uM • 31. PBMC+LPS (5 ug/ml)+YDE-043 0.01 uM • 32. PBMC+LPS (5 ug/ml)+YDE-043 0.001 uM
Multiplex assay was used to measure 30 cytokines and chemokines. The 1:2, 1:10 and 1:200 diluted cell supernatant and serial dilution of the standard were dispensed into a 96 well plate at 50 ul/well. Then, the pre-mixed cocktail of antibody-coated magnetic beads was dispensed at 50 ul/well and incubated at room temperature for 2 h in a horizontal orbital microplate shaker at 800±500 rpm. The beads were washed using a magnetic device to prevent loss. The biotin-antibody was dispensed in 50 ul of each well and incubated at room temperature for 1 h in a shaker at 800±500 rpm. After washing, streptavidin-PE was added at 50 ul/well and incubated at room temperature for 30 min in a shaker under the same conditions. Finally, after washing, wash buffer (100 ul/well) was added to the plate and incubated in a shaker for 2 min. The Luminex™ 200 setting were set according to the manufacturer's protocol. The data was calculated with a standard five-parameter logistic nonlinear regression analysis of the data (xPonent software 4.2, USA). The levels of cytokine/chemokine are normalized to the live cell counts (1×10^5 cells/mL) and presented as concentrations per mL (pg/mL or ng/mL).

[1] = test article 0.001 uM, single replicates
[2] = test article 0.01 uM, single replicates
[3] = test article 0.1 uM, single replicates
[4] = test article 1 uM, single replicates
[5] = test article 10 uM, single replicates
[6] = test article 100 uM, single replicates

## CC(C)C[C@H](NC(=O)CNC(=O)[C@H](CC(C)C)NC(=O)[C@H](CCC(N)=O)NC(=O)CNC(=O)[C@@H]1C[C@@H](O)CN1)C(=O)N[C@@H](C)C(=O)NCC(=O)N1CCC[C@H]1C(=O)N[C@@H](CCCCN)C(=O)O [YDE-011] (H-[Hyp]GQLGLAGPK-OH)
Test article 0.001 uM, Mean
  TIMP-1 Concentration: 1792.7 pg/mL
  TIMP-1 MFI: 946.7
  TIMP-1 conc/live cell: 339.5 pg/10^5
[1]
  TIMP-1 Concentration: 1831.6 pg/mL and 1659.9 pg/mL and 1886.6 pg/mL
  TIMP-1 MFI: 974.0 and 852.5 and 1013.5
  TIMP-1 conc/live cell: 407.0 pg/10^5 and 286.2 pg/10^5 and 325.3 pg/10^5
Test article 0.01 uM, Mean
  TIMP-1 Concentration: 1879.9 pg/mL
  TIMP-1 MFI: 1009.2
  TIMP-1 conc/live cell: 325.5 pg/10^5
[2]
  TIMP-1 Concentration: 1811.3 pg/mL and 2050.0 pg/mL and 1778.3 pg/mL
  TIMP-1 MFI: 959.5 and 1132.0 and 936.0
  TIMP-1 conc/live cell: 292.1 pg/10^5 and 402.0 pg/10^5 and 282.3 pg/10^5
Test article 0.1 uM, Mean
  TIMP-1 Concentration: 1831.1 pg/mL
  TIMP-1 MFI: 974.2
  TIMP-1 conc/live cell: 320.0 pg/10^5
[3]
  TIMP-1 Concentration: 1879.7 pg/mL and 1677.8 pg/mL and 1935.9 pg/mL
  TIMP-1 MFI: 1008.5 and 865.0 and 1049.0
  TIMP-1 conc/live cell: 284.8 pg/10^5 and 335.6 pg/10^5 and 339.6 pg/10^5
Test article 1 uM, Mean
  TIMP-1 Concentration: 1791.4 pg/mL
  TIMP-1 MFI: 945.5
  TIMP-1 conc/live cell: 356.7 pg/10^5
[4]
  TIMP-1 Concentration: 1869.9 pg/mL and 1750.8 pg/mL and 1753.6 pg/mL
  TIMP-1 MFI: 1001.5 and 916.5 and 918.5
  TIMP-1 conc/live cell: 340.0 pg/10^5 and 364.7 pg/10^5 and 365.3 pg/10^5
Test article 10 uM, Mean
  TIMP-1 Concentration: 1768.2 pg/mL
  TIMP-1 MFI: 929.0
  TIMP-1 conc/live cell: 335.3 pg/10^5
[5]
  TIMP-1 Concentration: 1820.4 pg/mL and 1794.4 pg/mL and 1689.9 pg/mL
  TIMP-1 MFI: 966.0 and 947.5 and 873.5
  TIMP-1 conc/live cell: 337.1 pg/10^5 and 309.4 pg/10^5 and 359.5 pg/10^5
Test article 100 uM, Mean
  TIMP-1 Concentration: 2184.4 pg/mL
  TIMP-1 MFI: 1231.0
  TIMP-1 conc/live cell: 360.0 pg/10^5
[6]
  TIMP-1 Concentration: 2326.8 pg/mL and 2121.7 pg/mL and 2104.6 pg/mL
  TIMP-1 MFI: 1336.5 and 1184.5 and 1172.0
  TIMP-1 conc/live cell: 381.4 pg/10^5 and 347.8 pg/10^5 and 350.8 pg/10^5
